From patent US12133836B2, “Reduction of adipose tissue” (10XBIO, LLC, priority 2015, dated 2024)

How the values were obtained:
[1] = test system: inguinal-lateral fat pad (ILFP); assay: Effect of polidocanol on the inguinal-lateral fat pad (ILFP) of hamsters: fat weight analysis; type: in vivo, LVG Syrian Golden Hamsters
Excerpt: Concentration of polidocanol solutions: 0.5%, 1.25% and 2%; Deoxycholate dose concentration: 1.0%
Species: LVG Syrian Golden Hamsters, retired breeders
Body weight: 165-187 grams (on first day of treatment period); Sex: Male; Vendor: Charles River; Diet: Standard lab chow; Randomization: Animals were grouped so that the mean body weights are approximately equal among the treatment subgroups
(§1) Model: The inguinal fat pads were used as a model tissue. In the golden hamster, these subcutaneous fat pads lying bilaterally in the inguinal region were continuous with fat pads located laterally on each respective flank, and thus were referenced here as inguinal-lateral fat pads or ILFPs. The length of each fat pad offered the opportunity for two injections spaced approximately […] within each fat pad, and similarly placed control injections in the contralateral fat pad of the same animal. The unilateral experimental treatment in this model offered the advantage of paired comparison of treated and non-treated fat pads within individual animals, and served as a model to assess lipolytic effects of test compounds.
(§2) Test Articles: Polidocanol: Solutions provided by Advantar (or other), 0.5%, 1.25%, and 2.0%, formulated with propylene glycol.
(§3) Treatment: Under isoflurane anesthesia, the right ILFP was injected with 0.2 cc of drug solution at two sites (medial and lateral portions of the ILFP), spaced 0.5 cm apart. The left ILFP was injected in medial and lateral sites with filtered vehicle control solution. A total of 36 animals were divided into three dose groups, outlined in the following table:
Harvesting: On day 28 (injections at Day 0) and 56 (injections at Day 0 and Day 28), the animals were sacrificed and the ILFPs excised and weighed (see “INGUINAL/LATERAL FAT PAD HARVESTING PROCEDURE,” below). Medial and lateral portions of each ILFP were weighed together. After weighing, each portion was frozen separately on dry ice and stored frozen for histological analysis.
Fat weight analysis: Results were expressed primarily as the mean difference between the right and left ILFPs in grams (A R-L) and as the percent difference (A R-L %). Statistical analysis was performed.
(§4) The animals were injected percutaneously with 0.2 mL/injection of test article solution at up to four (4) sites (in the medial, central, and lateral portions of the ILFP) running superiorly to caudally, spaced 0.5 cm apart. The injections were carried out by inserting the needle into the right inguinal region, locating the tip of the needle in the middle of the fat pad between the peritoneal wall and the right leg. In hamsters, the fat could be roughly visualized as a light area beneath the skin. The tip of the needle was at a depth adequate to enter the inguinal fat (as discerned by the thickness of tissue when the needle tip is raised slightly upward while in its final position) while avoiding the leg muscle and the peritoneum. The needle tip was placed approximately 0.5 cm medial to a line drawn from the patella of the knee to the xyphoid appendix of the sternum.
With the animal lying ventral side up, skin was cut along abdominal midline from the umbilicus to a point caudal to the penis near the bottom of the scrotum. The skin was cut from the penile area in a posterior and lateral direction toward the posterior of the hindlimb. […] An elipse was harvested of skin overlying the region of the ILFP, and placed in formalin for storage and. […]

skin tissue = assay: Skin adverse events (skin necrosis) after subcutaneous injection into the inguinal fat pad; type: in vivo, LVG Syrian Golden Hamsters
Excerpt: as §1, §2, §3, §4

adipose tissue = assay: Histological analysis of treated adipose tissue (H&E); type: in vivo, LVG Syrian Golden Hamsters; details: H&E stained sections
Method: Histological analysis: The right (polidocanol treated) medial injection sites of all six subjects, and one left (saline treated) site from each treatment group (animals #3 and #5), were analyzed histologically to determine evidence of necrosis within the adipose tissue. The selected samples were sectioned at a thickness of 20 microns taken at intervals of 0.5 mm through the tissue. The sections were mounted and stained with H&E and examined microscopically for evidence of necrosis or inflammation. Representative images of each tissue were recorded with a Carl Zeiss color camera.
In addition, there is a lymphomononuclear inflammatory infiltrate with macrophage phagocytosis of lipid cell debris.

fat tissue = assay: Co-solvent injected with polidocanol (tolerability, uniformity of fat necrosis); type: in vivo; details: as co-solvent

For polidocanol, the “visible change in inguinal fat pad fullness / inguinal crease (body contour)” value ([1]; FIG. 5A-5B) was “externally visible reduction in inguinal fat pad fullness”, the “reductions in inguinal fat pad mass” value ([1]; polidocanol 0.5%, day 28 after a single treatment, formulated with propylene glycol) was 15% and the “reductions in inguinal fat pad mass” value ([1]; polidocanol 1.25%, day 28 after a single treatment, formulated with propylene glycol) was 15%. For the same compound, the “fat pad mass reductions” value ([1]; polidocanol 2.0%, day 28 after a single treatment, formulated with propylene glycol) was 10%, the “reductions in fat pad mass relative to deoxycholate” value ([1]; same optimized dosing frequency, volume, and injection spacing (FIG. 3)) was “at least equivalent to deoxycholate” and the “skin necrosis (proportion of animals)” value (skin tissue; 2% polidocanol) was 33%. For the same compound, the “selectivity for fat tissue relative to skin tissue” value (skin tissue; FIG. 6) was “selectively destroys fat tissue relative to skin tissue”, the “skin necrosis side effect, number of animals” value (shortened to “skin necrosis side effect”) (skin tissue; Polidocanol 1.25%, Group 2A, moderate skin necrosis (FIG. 8A)) was 1 of 9 and the “skin necrosis side effect” value (skin tissue; Polidocanol 2%, Group 3B, moderate skin necrosis (FIG. 8B)) was 2 animals. For the same compound, the “side effects such as skin necrosis, inflammation, large subcutaneous fat droplets” value (skin tissue; polidocanol concentration greater than about 1.25%) was “higher proportion of side effects”, the “animals with mild skin breakdown” value (skin tissue; polidocanol injection at 0.5% (1 of 9 animals)) was 11% and the “animals with mild skin breakdown” value (skin tissue; polidocanol injection at 1.25% (1 of 9 animals)) was 11%. For the same compound, the “histopathology of treated adipose tissue” value (adipose tissue) was “dose dependent changes of fat cell necrosis and apoptosis”.
In the case of `CC(O)CO` (centres unmarked) [propylene glycol, propane-1,2-diol], the “irritation when injected with polidocanol” value (fat tissue) is reported as “non-irritating” and the “patchy and incomplete fat tissue necrosis” value (fat tissue; relative to the absence of co-solvent) is reported as “reduced amount of patchy and incomplete fat tissue necrosis”.
In the case of deoxycholate, the “animals that developed severe skin necrosis” value (skin tissue; 1% deoxycholate (3 of 5 animals)) is reported as 60% and the “skin necrosis side effect” value (skin tissue; Deoxycholate 1%, Group 4 (FIG. 8C)) is reported as 3 of 5.
